Results as given in US20220211657A1, “METHODS OF TREATING GASTROINTESTINAL CANCERS AND TUMORS THEREOF USING COMBINATION THERAPY” (GEORGETOWN UNIVERSITY, priority 2019, published 2022).

What was measured:
[1] = tested on: metastatic pancreatic cancer; settings: first-line standard of care; cited from earlier work
[2] = tested on: BRCA1/2-mutated tumors; settings: out of 24 patients with BRCA1/2-mutated tumors; cited from earlier work
[3] = tested on: BRCA1/2-mutated pancreatic cancer; settings: cited from earlier work
[4] = Pharmacokinetic assessment of veliparib (Day 1, 3, 7 samples); assay type: in vivo, human; settings: 14 subjects in 5 dosing cohorts
Method: For the Phase I portion of the study, plasma samples were obtained from patients on Day 1 (pre-dose), Day 3, and Day 7 for pharmacokinetic (PK) assessment of veliparib. Results were compared to historical controls to identify any effect on veliparib pharmacokinetics by oxaliplatin or 5-fluorouracil. […] Next generation sequencing (NGS) of cancer-related genes was performed on tumor samples. Results from patients were captured, if ordered by the treating physician prior to enrollment, and sequencing was performed commercially by Foundation Medicine (FM), Caris Life Sciences, or through commercial germline testing labs such as Myriad or Invitae. […] Patients were defined as harboring HR-DDR mutations if a known pathogenic mutation in one of the HR-DDR genes (including but not limited to: ARID1A, ATM, ATRX, MRE11A, NBN, PTEN, RAD50/51/51B, BARD1, BLM, BRCA1, BRCA2, BRIP1, FANCA/C/D2/E/F/G/L, PALB2, WRN, CHEK2, CHEK1, BAP1, FAM175A, SLX4, MLL2, or XRCC) was identified in a blood sample (germline) or tumor sample (somatic).

[5] = Phase I dose escalation of veliparib plus FOLFOX (dose limiting toxicities, recommended Phase II dose); assay type: in vivo
Method: The study was designed as a single center, Phase I/II, open label study of veliparib plus FOLFOX. At the time of study initiation, the dose and schedule for modified FOLFOX (de Gramont et al., “Leucovorin and Fluorouracil With or Without Oxaliplatin as First-Line Treatment in Advanced Colorectal Cancer,” J. Clin. Oncol. 18:2938-2947 (2000), which is hereby incorporated by reference in its entirety) was used (5-fluorouracil bolus 400 mg/m^2 Day 1; leucovorin 400 mg/m^2 Day 1; oxaliplatin 85 mg/m^2 Day 1; and 5-fluorouracil 2400 mg/m^2 continuous infusion over 46 hours, Days 1-3). Each cycle was 14 days. […] With regards to the veliparib, for the Phase I portion, the dose of veliparib was escalated in a standard 3+3 design from the lowest dose of 40 mg twice a day (BID) days 1-7 of each 14-day cycle. Dose levels were 40 mg, 60 mg, 80 mg, 100 mg, 150 mg, 200 mg, and 250 mg. For the Phase II portion, the recommended Phase II dose (RP2D) was 200 mg of veliparib, though the protocol did allow for stepwise de-escalation to 150 mg and then to 100 mg for toxicity after the first cycle. […] Tumor response was assessed radiographically every 8-12 weeks using Response Evaluation Criteria in Solid Tumors criteria version 1.1 (Eisenhauer et al., “New Response Evaluation Criteria in Solid Tumours: Revised RECIST Guideline (Version 1.1),” Eur. J. Cancer 45:228-247 (2009), which is hereby incorporated by reference in its entirety). […] The primary objective of the Phase I portion was to determine the recommended Phase II dose, with the primary endpoint being adverse events, as measured by the National Cancer Institute Common Terminology Criteria for Adverse Events, Version 4.03, which is hereby incorporated by reference in its entirety. […]
The primary objective of the Phase I portion of the trial was to determine the recommended Phase II dose, by assessing the safety and tolerability as determined by adverse events, defined by the National Cancer Institute Common Terminology Criteria for Adverse Events, Version 4.03, which is hereby incorporated by reference in its entirety. […]

**Q.** With Nc1ccn([C@@H]2O[C@H](CO)[C@@H](O)C2(F)F)c(=O)n1 [gemcitabine] as the compound, how does the response rate [1] read?
**A.** 7%

**Q.** With O=C(c1cc(Cc2n[nH]c(=O)c3ccccc23)ccc1F)N1CCN(C(=O)C2CC2)CC1 [olaparib] as the compound, how does the patients who responded [2] read?
**A.** 4 patients

**Q.** Which results are given for CNCc1ccc(-c2[nH]c3cc(F)cc4c3c2CCNC4=O)cc1 [rucaparib]?
**A.** patients who did not respond to platinum but did respond ([3]; in vivo): two; responses ([3]; out of 19 patients with BRCA1/2-mutated pancreatic cancer): 4

**Q.** With C[C@]1(c2nc3c(C(N)=O)cccc3[nH]2)CCCN1 [veliparib] as the compound, how does the “impact of co-administration of FOLFOX on veliparib pharmacokinetics” value [4] read?
**A.** no apparent impact

**Q.** What about the “protocol-defined dose limiting toxicity” value ([5]; human, in vivo) of the same compound?
**A.** treatment delay of >3 weeks

**Q.** And the dose limiting toxicities ([5]; in vivo)?
**A.** one

**Q.** What about the “recommended Phase II dose” value ([5]; veliparib BID days 1-7 of each 14-day cycle plus FOLFOX) of the same compound?
**A.** 200 mg
